Values quoted from earlier work in PubChem BioAssay AID1259409 (Chemical Carcinogenesis Research Information System (CCRIS), 2018).
Values joined by “and” are separate entries in the source; they are usually repeats but may differ in a detail not shown here. Identical values can stand only once.

System: rodent chemically induced tumor inhibition, incidence and multiplicity
Test: CCRIS tumor inhibitor studies
Settings: Carcinogen: NONE USED, Route [Inhibitor]: ORAL, Promoter: NONE USED

For CC(N)Cc1ccccc1 (stereo not given), the “tumour outcome (control, treated, inhibition, significance)” value (Dose [Inhibitor]: 0, 20 PPM IN FEED FOR 103 WK (STUDY DURATION: 2 YR), Species: MOUSE, Strain/Sex: B6C3F1/FEMALE, Target Tissue: Type of Lesion: HARDERIAN GLAND: ADENOMA) is given as 5/50 (10%), 2/50 (4%), 60%, not calculated, the “tumour outcome (control, treated, inhibition, significance)” value (Dose [Inhibitor]: 0, 20 PPM IN FEED FOR 103 WK (STUDY DURATION: 2 YR), Species: MOUSE, Strain/Sex: B6C3F1/FEMALE, Target Tissue: Type of Lesion: LIVER: ADENOMA) is given as 5/50 (10%), 1/50 (2%), 80%, not calculated and the “tumour outcome (control, treated, inhibition, significance)” value (Dose [Inhibitor]: 0, 20 PPM IN FEED FOR 103 WK (STUDY DURATION: 2 YR), Species: MOUSE, Strain/Sex: B6C3F1/FEMALE, Target Tissue: Type of Lesion: LUNG: ADENOMA OR CARCINOMA) is given as 8/50 (16%), 6/50 (12%), 25%, not calculated. For the same compound, the “tumour outcome (control, treated, inhibition, significance)” value (Dose [Inhibitor]: 0, 20 PPM IN FEED FOR 103 WK (STUDY DURATION: 2 YR), Species: MOUSE, Strain/Sex: B6C3F1/FEMALE, Target Tissue: Type of Lesion: LUNG: ADENOMA) was 7/50 (14%), 4/50 (8%), 43%, not calculated, the “tumour outcome (control, treated, inhibition, significance)” value (Dose [Inhibitor]: 0, 20 PPM IN FEED FOR 103 WK (STUDY DURATION: 2 YR), Species: MOUSE, Strain/Sex: B6C3F1/MALE, Target Tissue: Type of Lesion: HARDERIAN GLAND: ADENOMA) was 4/50 (8%), 2/50 (4%), 50%, not calculated and the “tumour outcome (control, treated, inhibition, significance)” value (Dose [Inhibitor]: 0, 20 PPM IN FEED FOR 103 WK (STUDY DURATION: 2 YR), Species: MOUSE, Strain/Sex: B6C3F1/MALE, Target Tissue: Type of Lesion: LIVER: ADENOMA OR CARCINOMA) was 14/50 (28%), 12/50 (24%), 15%, not calculated. For the same compound, the “tumour outcome (control, treated, inhibition, significance)” value (Dose [Inhibitor]: 0, 20 PPM IN FEED FOR 103 WK (STUDY DURATION: 2 YR), Species: MOUSE, Strain/Sex: B6C3F1/MALE, Target Tissue: Type of Lesion: LIVER: ADENOMA) was 10/50 (20%), 7/50 (14%), 30%, not calculated, the “tumour outcome (control, treated, inhibition, significance)” value (Dose [Inhibitor]: 0, 20 PPM IN FEED FOR 103 WK (STUDY DURATION: 2 YR), Species: MOUSE, Strain/Sex: B6C3F1/MALE, Target Tissue: Type of Lesion: LIVER: CARCINOMA) was 4/50 (8%), 6/50 (12%), -50%, not calculated and the “tumour outcome (control, treated, inhibition, significance)” value (Dose [Inhibitor]: 0, 20 PPM IN FEED FOR 103 WK (STUDY DURATION: 2 YR), Species: MOUSE, Strain/Sex: B6C3F1/MALE, Target Tissue: Type of Lesion: LUNG: ADENOMA) was 6/50 (12%), 2/50 (4%), 67%, not calculated. For the same compound, the “tumour outcome (control, treated, inhibition, significance)” value (Dose [Inhibitor]: 0, 20 PPM IN FEED FOR 103 WK (STUDY DURATION: 2 YR), Species: RAT, Strain/Sex: F344/FEMALE, Target Tissue: Type of Lesion: ANTERIOR PITUITARY GLAND: ADENOMA) was 3/50 (62%), 24/48 (50%), 19%, not calculated, the “tumour outcome (control, treated, inhibition, significance)” value (Dose [Inhibitor]: 0, 20 PPM IN FEED FOR 103 WK (STUDY DURATION: 2 YR), Species: RAT, Strain/Sex: F344/FEMALE, Target Tissue: Type of Lesion: MAMMARY GLAND: FIBROADENOMA) was 21/50 (42%), 11/50 (22%), 48%, not calculated and the “tumour outcome (control, treated, inhibition, significance)” value (Dose [Inhibitor]: 0, 20 PPM IN FEED FOR 103 WK (STUDY DURATION: 2 YR), Species: RAT, Strain/Sex: F344/FEMALE, Target Tissue: Type of Lesion: UTERUS: ENDOMETRIAL STROMA POLYP) was 10/50 (20%), 6/50 (12%), 40%, not calculated. For the same compound, the “tumour outcome (control, treated, inhibition, significance)” value (Dose [Inhibitor]: 0, 20 PPM IN FEED FOR 103 WK (STUDY DURATION: 2 YR), Species: RAT, Strain/Sex: F344/MALE, Target Tissue: Type of Lesion: ADRENAL GLAND: PHEOCHROMOCYTOMA) was 23/49 (47%), 15/44 (34%), 28%, not calculated, the “tumour outcome (control, treated, inhibition, significance)” value (Dose [Inhibitor]: 0, 20 PPM IN FEED FOR 103 WK (STUDY DURATION: 2 YR), Species: RAT, Strain/Sex: F344/MALE, Target Tissue: Type of Lesion: ANTERIOR PITUITARY GLAND: ADENOMA) was 15/49 (31%), 15/48 (31%), 0%, not significant and the “tumour outcome (control, treated, inhibition, significance)” value (Dose [Inhibitor]: 0, 100 PPM IN FEED FOR 103 WK (STUDY DURATION: 2 YR), Species: MOUSE, Strain/Sex: B6C3F1/FEMALE, Target Tissue: Type of Lesion: ANTERIOR PITUITARY GLAND: ADENOMA) was 12/49 (24%), 6/49 (12%), 50%, not calculated and 12/49 (24%), 1/46 (2%), 92%, p<0.01. The “tumour outcome (control, treated, inhibition, significance)” value (Dose [Inhibitor]: 0, 100 PPM IN FEED FOR 103 WK (STUDY DURATION: 2 YR), Species: MOUSE, Strain/Sex: B6C3F1/FEMALE, Target Tissue: Type of Lesion: HARDERIAN GLAND: ADENOMA) was 5/50 (10%), 0/47 (0%), 100%, p<0.05, the “tumour outcome (control, treated, inhibition, significance)” value (Dose [Inhibitor]: 0, 100 PPM IN FEED FOR 103 WK (STUDY DURATION: 2 YR), Species: MOUSE, Strain/Sex: B6C3F1/FEMALE, Target Tissue: Type of Lesion: LUNG: ADENOMA OR CARCINOMA) was 8/50 (16%), 1/47 (2%), 88%, p<0.01 and the “tumour outcome (control, treated, inhibition, significance)” value (Dose [Inhibitor]: 0, 100 PPM IN FEED FOR 103 WK (STUDY DURATION: 2 YR), Species: MOUSE, Strain/Sex: B6C3F1/FEMALE, Target Tissue: Type of Lesion: LUNG: ADENOMA) was 7/50 (14%), 1/47 (2%), 86%, p<0.05. The “tumour outcome (control, treated, inhibition, significance)” value (Dose [Inhibitor]: 0, 100 PPM IN FEED FOR 103 WK (STUDY DURATION: 2 YR), Species: MOUSE, Strain/Sex: B6C3F1/MALE, Target Tissue: Type of Lesion: LIVER: ADENOMA OR CARCINOMA) was 14/50 (28%), 2/50 (4%), 86%, p<0.01, the “tumour outcome (control, treated, inhibition, significance)” value (Dose [Inhibitor]: 0, 100 PPM IN FEED FOR 103 WK (STUDY DURATION: 2 YR), Species: MOUSE, Strain/Sex: B6C3F1/MALE, Target Tissue: Type of Lesion: LIVER: ADENOMA) was 10/50 (20%), 1/50 (2%), 90%, p<0.01 and the “tumour outcome (control, treated, inhibition, significance)” value (Dose [Inhibitor]: 0, 100 PPM IN FEED FOR 103 WK (STUDY DURATION: 2 YR), Species: MOUSE, Strain/Sex: B6C3F1/MALE, Target Tissue: Type of Lesion: LIVER: CARCINOMA) was 4/50 (8%), 1/50 (2%), 75%, not calculated. For the same compound, the “tumour outcome (control, treated, inhibition, significance)” value (Dose [Inhibitor]: 0, 100 PPM IN FEED FOR 103 WK (STUDY DURATION: 2 YR), Species: MOUSE, Strain/Sex: B6C3F1/MALE, Target Tissue: Type of Lesion: LUNG: ADENOMA) was 6/50 (12%), 3/50 (6%), 50%, not calculated, the “tumour outcome (control, treated, inhibition, significance)” value (Dose [Inhibitor]: 0, 100 PPM IN FEED FOR 103 WK (STUDY DURATION: 2 YR), Species: RAT, Strain/Sex: F344/FEMALE, Target Tissue: Type of Lesion: ANTERIOR PITUITARY GLAND: ADENOMA) was 31/50 (62%), 19/50 (38%), 39%, p<0.05 and the “tumour outcome (control, treated, inhibition, significance)” value (Dose [Inhibitor]: 0, 100 PPM IN FEED FOR 103 WK (STUDY DURATION: 2 YR), Species: RAT, Strain/Sex: F344/FEMALE, Target Tissue: Type of Lesion: MAMMARY GLAND: FIBROADENOMA) was 21/50 (42%), 2/50 (4%), 90%, p<0.01. For the same compound, the “tumour outcome (control, treated, inhibition, significance)” value (Dose [Inhibitor]: 0, 100 PPM IN FEED FOR 103 WK (STUDY DURATION: 2 YR), Species: RAT, Strain/Sex: F344/FEMALE, Target Tissue: Type of Lesion: UTERUS: ENDOMETRIAL STROMA POLYP) was 10/50 (20%), 3/50 (6%), 70%, p<0.05, the “tumour outcome (control, treated, inhibition, significance)” value (Dose [Inhibitor]: 0, 100 PPM IN FEED FOR 103 WK (STUDY DURATION: 2 YR), Species: RAT, Strain/Sex: F344/MALE, Target Tissue: Type of Lesion: ADRENAL GLAND: PHEOCHROMOCYTOMA) was 23/49 (47%), 7/50 (14%), 70%, p<0.01 and the “tumour outcome (control, treated, inhibition, significance)” value (Dose [Inhibitor]: 0, 100 PPM IN FEED FOR 103 WK (STUDY DURATION: 2 YR), Species: RAT, Strain/Sex: F344/MALE, Target Tissue: Type of Lesion: ANTERIOR PITUITARY GLAND: ADENOMA) was 15/49 (31%), 9/49 (18%), 42%, not calculated. The “tumour outcome (control, treated, inhibition, significance)” value (Dose [Inhibitor]: 0, 100 PPM IN FEED FOR 103 WK (STUDY DURATION; 2 YR), Dose [Inhibitor]: 0, 100 PPM IN FEED FOR 103 WK (STUDY DURATION; 2 YR), Species: MOUSE, Strain/Sex: B6C3F1/MALE, Target Tissue: Type of Lesion: HARDERIAN GLAND: ADENOMA) was 4/50 (8%), 0/50 (0%), 100%, not calculated, the “tumour outcome (control, treated, inhibition, significance)” value (Dose [Inhibitor]: O, 20 PPM IN FEED FOR 103 WK (STUDY DURATION: 2 YR), Species: MOUSE, Strain/Sex: B6C3F1/MALE, Target Tissue: Type of Lesion: LUNG: ADENOMA OR CARCINOMA) was 8/50 (16%), 3/50 (6%), 63%, not calculated and the “tumour outcome (control, treated, inhibition, significance)” value (Dose [Inhibitor]: O, 100 PPM IN FEED FOR 103 WK (STUDY DURATION: 2 YR), Species: MOUSE, Strain/Sex: B6C3F1/MALE, Target Tissue: Type of Lesion: LUNG: ADENOMA OR CARCINOMA) was 8/50 (16%), 4/50 (8%), 50%, not calculated.
